Data as given in ChEMBL document CHEMBL1201862, “PubChem BioAssay data set” (2004).
Calls of active or inactive are those of the source.

Legend:
Genome polyprotein = Genome polyprotein (dengue virus type 2, UniProt P29990); test: Dengue-2 NS5 methyltransferase inhibitors, primary screen, biochemical, confirmation dose response (AID 588689); format: functional
[1] = molecular target: T1, Carboxy-terminal domain RNA polymerase II polypeptide A small phosphatase 1 (Homo sapiens, UniProt Q9GZU7); test: inhibitors of CTDSP1, concentration-response testing, biochemical assay, absorbance-based, actives from ultra-high-throughput screening (AID 540297); format: functional
T1 sequence (Q9GZU7 whole entry): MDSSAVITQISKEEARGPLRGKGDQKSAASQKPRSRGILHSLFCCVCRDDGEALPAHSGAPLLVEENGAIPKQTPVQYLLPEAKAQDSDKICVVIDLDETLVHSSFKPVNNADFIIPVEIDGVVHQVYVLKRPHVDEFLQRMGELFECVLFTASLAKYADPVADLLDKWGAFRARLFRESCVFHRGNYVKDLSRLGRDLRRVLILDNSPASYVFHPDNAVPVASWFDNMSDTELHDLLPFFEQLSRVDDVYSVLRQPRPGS

[2] = A cytotoxicity screen of small molecule inhibitors of the PhoP region in Salmonella typhi identified in the primary screen. [Related pubchem assays: 1850, 1864, 1985 ]; format: functional
[3] = molecular target: T2, Short transient receptor potential channel 4 (Mus musculus, UniProt Q9QUQ5); test: mouse TRPC4 channel activators, dose response, cell-based, HEK293 TRPC4/mu-opioid, Fluo-4 calcium (AID 434937); format: functional
T2 sequence (Q9QUQ5 whole entry): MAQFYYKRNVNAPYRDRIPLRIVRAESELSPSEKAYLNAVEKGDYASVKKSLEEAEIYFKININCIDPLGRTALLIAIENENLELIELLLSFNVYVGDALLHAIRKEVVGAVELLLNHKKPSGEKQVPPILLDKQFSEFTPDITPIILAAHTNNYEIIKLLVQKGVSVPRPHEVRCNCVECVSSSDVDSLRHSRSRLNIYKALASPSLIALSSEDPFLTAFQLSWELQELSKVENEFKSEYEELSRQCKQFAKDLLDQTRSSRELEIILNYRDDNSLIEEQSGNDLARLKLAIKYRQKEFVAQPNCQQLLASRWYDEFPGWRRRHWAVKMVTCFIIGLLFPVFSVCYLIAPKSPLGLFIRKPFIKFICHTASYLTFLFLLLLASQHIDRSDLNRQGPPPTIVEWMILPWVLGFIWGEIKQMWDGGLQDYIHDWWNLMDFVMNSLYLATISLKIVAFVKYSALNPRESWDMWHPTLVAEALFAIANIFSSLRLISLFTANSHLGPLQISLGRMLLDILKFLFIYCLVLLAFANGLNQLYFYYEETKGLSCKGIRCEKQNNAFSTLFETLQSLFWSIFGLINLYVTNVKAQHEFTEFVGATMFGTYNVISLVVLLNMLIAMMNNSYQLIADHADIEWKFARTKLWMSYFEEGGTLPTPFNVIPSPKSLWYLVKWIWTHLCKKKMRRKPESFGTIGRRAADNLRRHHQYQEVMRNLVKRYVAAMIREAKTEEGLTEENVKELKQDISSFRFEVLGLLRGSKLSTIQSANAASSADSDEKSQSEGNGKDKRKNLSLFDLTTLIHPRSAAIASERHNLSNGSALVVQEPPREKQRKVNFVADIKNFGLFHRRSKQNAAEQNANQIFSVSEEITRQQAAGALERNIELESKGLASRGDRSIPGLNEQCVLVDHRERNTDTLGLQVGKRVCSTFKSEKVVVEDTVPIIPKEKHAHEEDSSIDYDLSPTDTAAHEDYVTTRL

Coagulation factor XII = molecular target: T3, Coagulation factor XII (Homo sapiens, UniProt P00748); format: functional;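 note: activated factor XIIa alpha cleaving a fluorogenic AMC peptide substrate; inhibitor potency from loss of enzyme activity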
T3 sequence (P00748 whole entry): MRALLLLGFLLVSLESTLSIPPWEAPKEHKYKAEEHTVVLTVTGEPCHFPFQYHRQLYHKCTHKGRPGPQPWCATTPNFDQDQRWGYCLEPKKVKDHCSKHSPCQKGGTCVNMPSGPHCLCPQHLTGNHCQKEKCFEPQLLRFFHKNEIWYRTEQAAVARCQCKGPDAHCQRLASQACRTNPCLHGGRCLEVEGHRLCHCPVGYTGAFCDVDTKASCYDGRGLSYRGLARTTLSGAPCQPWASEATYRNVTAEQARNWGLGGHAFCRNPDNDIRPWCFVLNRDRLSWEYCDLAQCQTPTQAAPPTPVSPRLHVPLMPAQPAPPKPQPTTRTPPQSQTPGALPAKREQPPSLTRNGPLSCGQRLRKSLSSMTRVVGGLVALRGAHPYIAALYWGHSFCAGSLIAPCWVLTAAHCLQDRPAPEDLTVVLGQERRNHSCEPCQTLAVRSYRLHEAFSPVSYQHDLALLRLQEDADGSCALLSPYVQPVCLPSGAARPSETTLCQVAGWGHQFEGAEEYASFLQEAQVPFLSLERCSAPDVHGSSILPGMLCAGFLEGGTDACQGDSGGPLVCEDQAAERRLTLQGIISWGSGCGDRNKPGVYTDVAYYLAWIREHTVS

[4] = inhibitors of firefly luciferase expression or activity, dose response, H4 neuroglioma cells, luminescence (AID 1990); format: functional, cell-based
[5] = Luminescence Cell-Based Dose Response HTS to Identify Inhibitors of 5'UTR Stem-Loop Driven Prion Protein mRNA Translation in H4 Neuroglioblastoma Cells. [Related pubchem assays: 1827 (Project Summary), 1813 (Primary HTS)]; format: functional
[6] = inhibitors of SNCA 5'UTR-driven reporter translation, confirmation, H4 neuroglioma cells, luminescence (AID 1988); format: functional, cell-based
[7] = cytotoxicity in HEK-293T cells, dose response, cytotoxicity control for TCR NF-kB inhibitor project, luminescence, T-cell screen hits (AID 489026); format: functional, cell-based;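 note: cells exposed to compound about 14 hours before the viability readout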
[8] = molecular target: Neurotensin receptor type 1 (Homo sapiens, UniProt P30989); format: functional;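 note: Image-based confirmatory dose-response assay measuring agonist activity at NTR1; NTR1-expressing U2OS osteosarcoma cells imaged for beta-arrestin GFP spot formation; agonist potency where compounds increase beta-arrestin recruitment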
INS1 = test: beta cell apoptosis inhibitors, cytokine rescue, dose response, luminescence, retest (AID 449756); format: functional, cell-based; details: Rattus norvegicus;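 note: cell death triggered by IL-1 beta plus TNF-alpha plus IFN-gamma mixture; protective hits raise ATP signal compared with cytokine alone wells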
Cytochrome P450 3A4 = Cytochrome P450 3A4 (Homo sapiens, UniProt P08684); details: Potency;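 note: confirmatory qHTS run detecting inhibitors and substrates of CYP3A4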
BJ [9] = test: cytotoxicity toward BJ-TERT fibroblasts, dose response, cell-based, RAS-independent, luminescence (AID 1933); format: functional; details: Homo sapiens
BJ [10] = test: cells; format: functional, cell-based; details: Homo sapiens
BJ [11] = test: cytotoxicity toward BJ-TERT-LT-ST fibroblasts, dose response, cell-based, RAS-independent, luminescence (AID 1935); format: functional; details: Homo sapiens;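 note: BJ fibroblasts immortalized with TERT plus LT and ST oncogenes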
[12] = cytotoxicity toward DRD oncogenic fibroblasts, dose response, cell-based, non-viral oncogenic, luminescence (AID 1934); format: functional; details: Homo sapiens
Protein skinhead-1 = molecular target: T4, Protein skinhead-1 (Caenorhabditis elegans, UniProt P34707); format: functional
T4 sequence (P34707 whole entry): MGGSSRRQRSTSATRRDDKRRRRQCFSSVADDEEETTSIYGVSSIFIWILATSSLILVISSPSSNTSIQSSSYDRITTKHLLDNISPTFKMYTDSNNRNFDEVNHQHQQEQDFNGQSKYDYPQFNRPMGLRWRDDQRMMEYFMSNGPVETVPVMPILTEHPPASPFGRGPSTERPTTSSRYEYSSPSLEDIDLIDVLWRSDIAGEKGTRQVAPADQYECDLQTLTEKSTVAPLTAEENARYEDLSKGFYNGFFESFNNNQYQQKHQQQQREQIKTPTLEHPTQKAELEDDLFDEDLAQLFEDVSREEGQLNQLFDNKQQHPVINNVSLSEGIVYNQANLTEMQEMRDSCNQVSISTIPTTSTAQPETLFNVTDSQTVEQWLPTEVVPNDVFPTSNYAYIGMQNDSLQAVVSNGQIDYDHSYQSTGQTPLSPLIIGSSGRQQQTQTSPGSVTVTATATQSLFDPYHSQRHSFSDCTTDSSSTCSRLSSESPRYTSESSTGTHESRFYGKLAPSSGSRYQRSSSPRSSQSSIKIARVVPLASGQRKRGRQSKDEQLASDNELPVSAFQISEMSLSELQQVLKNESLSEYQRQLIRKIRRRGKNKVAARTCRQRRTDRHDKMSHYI

[13] = molecular target: DNA dC->dU-editing enzyme APOBEC-3G (Homo sapiens, UniProt Q9HC16); test: Dose Response confirmation of small molecule APOBEC3G DNA Deaminase Inhibitors via a fluorescence-based single-stranded DNA deaminase assay. [Related pubchem assays (depositor defined):AID493012, AID493028]; format: functional
[14] = molecular target: FAD-linked sulfhydryl oxidase ALR (Homo sapiens, UniProt P55789); test: inhibitors of human ALR sulfhydryl oxidase, dose response, biochemical, H2O2 detection, luminescence, cherry-pick (AID 493248)
[15] = molecular target: T5, Heat shock factor protein 1 (Mus musculus, UniProt P38532); test: inhibition of MG132-induced HSE-luciferase signal, confirmation, cell-based, NIH3T3, luminescence, dose retest (AID 2382); format: functional;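 note: NIH3T3 fibroblasts with HSF1-driven luciferase reporter stressed by proteasome inhibitor MG132; luminescence from HSF1-driven luciferase expression after 8 hours of MG132 stress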
T5 sequence (P38532 whole entry): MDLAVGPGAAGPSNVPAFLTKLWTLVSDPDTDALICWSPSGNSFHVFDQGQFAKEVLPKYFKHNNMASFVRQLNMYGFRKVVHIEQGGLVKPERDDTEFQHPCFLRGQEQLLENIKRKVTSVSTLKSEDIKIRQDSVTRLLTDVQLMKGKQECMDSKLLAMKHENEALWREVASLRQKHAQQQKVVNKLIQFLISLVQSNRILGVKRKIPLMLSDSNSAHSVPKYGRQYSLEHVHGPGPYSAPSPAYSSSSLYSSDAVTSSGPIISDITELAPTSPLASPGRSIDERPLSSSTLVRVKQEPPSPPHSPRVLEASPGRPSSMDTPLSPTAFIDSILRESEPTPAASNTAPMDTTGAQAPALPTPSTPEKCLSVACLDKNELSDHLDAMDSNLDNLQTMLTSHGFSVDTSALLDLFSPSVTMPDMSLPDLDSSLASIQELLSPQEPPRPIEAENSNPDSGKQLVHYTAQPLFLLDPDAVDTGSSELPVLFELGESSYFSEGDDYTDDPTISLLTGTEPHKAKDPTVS

[16] = growth suppression of PTEN-null colon cells, dose response, cell-based, HCT116 PTEN knockout (AID 1047); format: functional;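 note: HCT116 colon tumor cells with PTEN knocked out; cells exposed to compound for 60 hours before readout; potency for loss of cell viability measured by luminescence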
[17] = growth suppression of beta-catenin-knockout colon cells, dose response, cell-based, HCT116, human colon tumor (AID 1045); format: functional;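 note: HCT116 colon tumor cells with beta catenin knocked out; cells exposed to compound for 60 hours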
[18] = Luminescence Cell-Based Dose Retest to Confirm Inhibitors of Cancer Stem Cells. [Related pubchem assays (depositor defined):AID2717, AID2721]; format: functional; details: Homo sapiens

Chain of Cytochrome P450 3A4 (P08684 whole entry): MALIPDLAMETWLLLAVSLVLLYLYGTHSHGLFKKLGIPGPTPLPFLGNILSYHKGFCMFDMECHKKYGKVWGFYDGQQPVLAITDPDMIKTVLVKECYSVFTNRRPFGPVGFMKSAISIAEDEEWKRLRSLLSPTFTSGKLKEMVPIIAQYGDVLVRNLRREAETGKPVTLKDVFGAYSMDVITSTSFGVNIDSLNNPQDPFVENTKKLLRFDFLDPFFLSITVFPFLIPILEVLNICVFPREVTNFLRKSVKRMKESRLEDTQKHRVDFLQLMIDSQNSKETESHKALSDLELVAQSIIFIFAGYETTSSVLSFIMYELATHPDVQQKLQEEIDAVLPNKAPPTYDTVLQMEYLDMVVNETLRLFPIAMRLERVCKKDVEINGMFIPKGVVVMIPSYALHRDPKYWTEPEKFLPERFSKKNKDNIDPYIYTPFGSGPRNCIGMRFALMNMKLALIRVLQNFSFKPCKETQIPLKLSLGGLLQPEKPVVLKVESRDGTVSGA
Chain of Neurotensin receptor type 1 (P30989 whole entry): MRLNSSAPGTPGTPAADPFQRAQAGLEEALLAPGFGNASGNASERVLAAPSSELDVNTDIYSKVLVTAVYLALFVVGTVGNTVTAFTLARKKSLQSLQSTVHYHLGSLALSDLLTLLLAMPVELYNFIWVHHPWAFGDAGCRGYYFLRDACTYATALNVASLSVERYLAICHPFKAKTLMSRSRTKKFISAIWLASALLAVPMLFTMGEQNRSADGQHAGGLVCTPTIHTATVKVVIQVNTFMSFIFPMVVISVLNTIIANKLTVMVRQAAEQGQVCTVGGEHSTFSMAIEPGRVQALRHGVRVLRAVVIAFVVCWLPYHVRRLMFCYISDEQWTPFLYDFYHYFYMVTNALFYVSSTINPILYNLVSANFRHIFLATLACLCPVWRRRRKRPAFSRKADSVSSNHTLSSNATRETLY
Chain of DNA dC->dU-editing enzyme APOBEC-3G (Q9HC16 whole entry): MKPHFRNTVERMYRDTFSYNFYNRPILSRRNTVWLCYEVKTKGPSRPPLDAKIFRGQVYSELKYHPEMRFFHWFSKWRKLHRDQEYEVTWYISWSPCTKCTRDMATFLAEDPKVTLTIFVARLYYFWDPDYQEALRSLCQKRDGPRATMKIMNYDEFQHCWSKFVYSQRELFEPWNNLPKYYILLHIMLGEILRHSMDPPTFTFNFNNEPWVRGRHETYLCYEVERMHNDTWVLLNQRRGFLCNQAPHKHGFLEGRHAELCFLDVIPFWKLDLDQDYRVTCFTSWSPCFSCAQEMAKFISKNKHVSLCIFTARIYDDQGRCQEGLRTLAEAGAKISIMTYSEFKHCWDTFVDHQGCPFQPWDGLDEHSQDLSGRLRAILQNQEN
Chain of FAD-linked sulfhydryl oxidase ALR (P55789 whole entry): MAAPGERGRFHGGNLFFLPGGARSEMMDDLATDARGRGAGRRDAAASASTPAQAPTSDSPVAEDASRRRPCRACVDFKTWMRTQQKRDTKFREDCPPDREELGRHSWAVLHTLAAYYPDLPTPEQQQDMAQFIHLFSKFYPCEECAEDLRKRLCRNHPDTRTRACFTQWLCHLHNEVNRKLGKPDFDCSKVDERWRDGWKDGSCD
Chain of Genome polyprotein (P29990 2492-3391 limits assumed): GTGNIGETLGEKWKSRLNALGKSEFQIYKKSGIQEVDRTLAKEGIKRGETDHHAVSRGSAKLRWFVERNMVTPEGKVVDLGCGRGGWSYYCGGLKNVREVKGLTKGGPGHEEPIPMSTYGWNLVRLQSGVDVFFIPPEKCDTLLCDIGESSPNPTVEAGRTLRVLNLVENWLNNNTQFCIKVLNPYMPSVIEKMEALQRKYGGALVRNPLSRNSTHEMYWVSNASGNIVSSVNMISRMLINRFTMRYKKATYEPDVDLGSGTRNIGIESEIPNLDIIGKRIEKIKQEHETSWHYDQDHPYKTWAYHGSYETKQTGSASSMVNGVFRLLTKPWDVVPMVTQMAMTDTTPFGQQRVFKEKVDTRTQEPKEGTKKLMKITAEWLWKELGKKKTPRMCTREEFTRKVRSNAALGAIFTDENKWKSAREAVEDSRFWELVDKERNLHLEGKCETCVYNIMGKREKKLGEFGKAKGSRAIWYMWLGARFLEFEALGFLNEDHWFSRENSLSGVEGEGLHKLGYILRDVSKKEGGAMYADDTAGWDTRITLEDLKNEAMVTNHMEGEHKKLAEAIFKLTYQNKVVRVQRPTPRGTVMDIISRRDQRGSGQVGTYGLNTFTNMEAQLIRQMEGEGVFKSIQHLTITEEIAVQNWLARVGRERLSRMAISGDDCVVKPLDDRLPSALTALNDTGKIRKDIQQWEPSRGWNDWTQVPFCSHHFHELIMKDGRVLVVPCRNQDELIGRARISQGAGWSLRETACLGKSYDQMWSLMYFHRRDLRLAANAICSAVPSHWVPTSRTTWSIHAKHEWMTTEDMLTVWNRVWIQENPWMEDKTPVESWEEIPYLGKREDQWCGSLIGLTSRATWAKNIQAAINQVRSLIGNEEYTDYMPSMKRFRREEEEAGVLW

## CCOc1cc(/C=N/NC2=NC(=O)C(CC(=O)O)S2)ccc1OCc1ccc(Cl)cc1 (stereo not given)
Genome polyprotein
  IC50: 47.9 µM (active)
[1]
  IC50: 7.12 µM (active)

## CC(c1cccnc1)N(CCN(C)C)C(=O)Nc1ccc(Cl)c(Cl)c1 (stereo not given)
[2]
  EC50: > 50 µM (active)
[3]
  EC50: 1.5 µM (active)

## COC(=O)c1ccc(Oc2nc(NC(C)C)nc(SC)n2)cc1
Coagulation factor XII
  IC50: > 50 µM (inactive)

## O=C(O)c1ccc(COc2ccccc2/C=C2\NC(=O)N(Cc3ccc(F)cc3)C2=O)cc1
[1]
  IC50: 6.42 µM (active)

## Cc1nc(Nc2nc(O)c3c(n2)CCC3)nc2ccccc12
[4]
  EC50: > 120 µM (not active)
[5]
  EC50: > 120 µM (not active)
[6]
  EC50: 9.61 µM (active)
[7]
  IC50: > 80 µM (inactive)

## O=C(c1ccc(Cl)cc1)C(CN1CCCCC1)c1ccccc1 (stereo not given)
[8]
  EC50: 14.7 µM (active)
INS1
  AC50: 19.4 µM (active)

## COc1ccc(C2Oc3cc(OC)cc(OC)c3CC2O)cc1 (stereo not given)
Cytochrome P450 3A4
  AC50: 20 µM (inconclusive)

## COCCN(CCOC)c1nc(C)nc2c1nc(-c1ccccc1)n2CC1CCN(C)CC1
Cytochrome P450 3A4
  AC50: 15.8 µM (inconclusive)

## Cc1cccc(N2N=C(C(=O)N3CC(=O)Nc4ccccc43)CCC2=O)c1
Coagulation factor XII
  IC50: > 50 µM (inactive)

## CCCCNc1nc(C)nc2c1nc(-c1ccccc1)n2CCCN(C)C
Cytochrome P450 3A4
  AC50: 15.8 µM (inconclusive)

## O=C(c1ccc(Cl)cc1)c1cc([N+](=O)[O-])ccc1N1CCOCC1
BJ [9]
  EC50: 1.51 µM (active)
BJ [10]
  EC50: 19 µM (active)
BJ [11]
  EC50: 1.19 µM (inconclusive)
[12]
  EC50: 1.17 µM (active)
[7]
  IC50: > 80 µM (inactive)
Protein skinhead-1
  IC50: 56.9 µM (inactive)

## CCCCn1c(-c2ccco2)n[nH]c1=S
[13]
  IC50: 8.1 µM (active)
[14]
  AC50: 33.6 µM (active)

## O=C1CC(c2ccccc2O)Oc2ccc(O)cc21 (stereo not given)
Cytochrome P450 3A4
  AC50: 25.1 µM (inconclusive)

## O=[N+]([O-])c1ccc(Cl)c(/C=N/n2c(S)nnc2-c2ccncc2)c1
[13]
  IC50: 4.79 µM (active)

## Cc1cc(Cl)c(S(=O)(=O)NC(C(=O)O)c2ccccc2)cc1OCC(N)=O (stereo not given)
[1]
  IC50: 12.9 µM (active)

## CC1=C(C(=O)Nc2ccc(C)cc2)C(c2ccc(C)o2)C2=C(O)CC(C)(C)CC2=N1 (stereo not given)
[15]
  EC50: > 195 µM (not active)
Coagulation factor XII
  IC50: > 50 µM (inactive)

## COc1ccc(/C=N/NC(=O)CCn2cnc3ccccc32)cc1
Coagulation factor XII
  IC50: > 50 µM (inactive)

## COC(=O)C(NC(=O)c1ccco1)(Nc1nc(C)cs1)C(F)(F)F (stereo not given)
Coagulation factor XII
  IC50: > 50 µM (inactive)

## Cc1cc(C)cc(N2C(=O)NC(=O)/C(=C/c3cccn3-c3ccc(Cl)cc3)C2=O)c1
[16]
  EC50: 31.6 µM (active)
[17]
  EC50: 26.1 µM (active)
[18]
  AC50: 1.04 µM (active)
[8]
  EC50: 10.6 µM (active)
